In DBAASP:
≈ marks a conversion by molar mass, not a printed value.

How the values were obtained:
Experiment in all cases: ≥ marks a high value that may be exact or a test limit, other limits are often not marked, values filed in µg/mL are converted to µM
[1] = test system: Escherichia coli ATCC 25922
[2] = test system: Pseudomonas aeruginosa ATCC 27853
[3] = test system: Staphylococcus aureus ATCC 25923
Escherichia coli = test system: Escherichia coli
Pseudomonas aeruginosa = test system: Pseudomonas aeruginosa
Staphylococcus aureus = test system: Staphylococcus aureus

MIC [1] [µM] | MIC (Escherichia coli) [µM] | MIC (Pseudomonas aeruginosa) [µM] | SMILES | also measured
6 (≈ 9.14 µg/mL) | – | – | CC(C)C[C@H](NC(=O)[C@H](CCCCN)NC(=O)[C@H](CCCCN)NC(=O)[C@H](C)NC(=O)[C@H](CC(C)C)NC(=O)[C@H](CCCCN)NC(=O)[C@H](C)NC(=O)[C@H](CC(C)C)NC(=O)[C@H](CCCCN)NC(=O)[C@H](CCCCN)NC(=O)[C@H](C)NC(=O)[C@H](CC(C)C)NC(=O)[C@@H](N)CCCCN)C(=O)N[C@@H](C)C(N)=O [KLAKKLAKLAKKLA] | MIC [2]: 3 µM (≈ 4.57 µg/mL); MIC [3]: 6 µM (≈ 9.14 µg/mL)
25 (≈ 74.7 µg/mL) | – | – | CC[C@H](C)[C@H](NC(=O)CN)C(=O)N[C@@H](CCSC)C(=O)N[C@@H](CC(=O)O)C(=O)N[C@H](C(=O)N[C@H](C(=O)N[C@@H](CCCCN)C(=O)N[C@@H](CC(N)=O)C(=O)N[C@H](C(=O)N[C@@H](C)C(=O)N[C@@H](CCCCN)C(=O)N[C@@H](CC(N)=O)C(=O)N[C@@H](CC(C)C)C(=O)N[C@@H](C)C(=O)NCC(=O)N[C@@H](CCC(N)=O)C(=O)N[C@@H](CC(C)C)C(=O)N[C@@H](CC(C)C)C(=O)N[C@@H](CC(=O)O)C(=O)N[C@@H](CCCCN)C(=O)N[C@@H](CC(C)C)C(=O)N[C@@H](CCCCN)C(=O)N[C@H]1CSSC[C@@H](C(=O)O)NC(=O)[C@H](C)NC(=O)[C@H]([C@@H](C)O)NC(=O)[C@H]([C@@H](C)CC)NC(=O)[C@H](CCCCN)NC1=O)C(C)C)C(C)C)[C@@H](C)O [GIMDTVKNVAKNLAGQLLDKLKCKITAC] | –
3 (≈ 9.93 µg/mL) | – | – | CC[C@H](C)[C@H](NC(=O)CN)C(=O)N[C@@H](CC(C)C)C(=O)N[C@@H](CO)C(=O)N[C@H](C(=O)N[C@H](C(=O)N[C@@H](CCCCN)C(=O)N[C@@H](CC(=O)O)C(=O)N[C@@H](Cc1ccccc1)C(=O)N[C@@H](C)C(=O)N[C@H](C(=O)N[C@@H](CCCCN)C(=O)N[C@@H](C)C(=O)NCC(=O)N[C@@H](CCCCN)C(=O)NCC(=O)N[C@@H](C)C(=O)N[C@@H](C)C(=O)N[C@@H](CCCCN)C(=O)NCC(=O)N[C@@H](CC(C)C)C(=O)N[C@@H](CC(C)C)C(=O)N[C@@H](CCC(=O)O)C(=O)N[C@@H](CCSC)C(=O)N[C@@H](C)C(=O)N[C@@H](CO)C(=O)N[C@H]1CSSC[C@@H](C(=O)O)NC(=O)[C@H](CCC(N)=O)NC(=O)CNC(=O)[C@H](CO)NC(=O)[C@H](CC(C)C)NC(=O)[C@H](CCCCN)NC1=O)[C@@H](C)CC)[C@@H](C)CC)[C@@H](C)O [GILSTIKDFAIKAGKGAAKGLLEMASCKLSGQC] | –
– | > 133 | > 133 | CC[C@H](C)[C@H](NC(=O)[C@H](C)NC(=O)CNC(=O)[C@@H](NC(=O)[C@H](CCCCN)NC(=O)[C@H](CCCCN)NC(=O)[C@@H](NC(=O)[C@H](C)NC(=O)CNC(=O)[C@H](Cc1c[nH]c2ccccc12)NC(=O)[C@H](CCCCN)NC(=O)[C@H](CCCCN)NC(=O)[C@@H](NC(=O)[C@H](C)NC(=O)CNC(=O)[C@@H](NC(=O)[C@@H](N)CCCCN)[C@@H](C)CC)[C@@H](C)CC)[C@@H](C)CC)[C@@H](C)CC)C(=O)N[C@@H](CCCCN)C(N)=O [KIGAIKKWGAIKKIGAIK] | MIC (Staphylococcus aureus): > 133 µM
– | 91.8 (≈ 125 µg/mL) | – | CC(C)C[C@H](NC(=O)[C@H](CC(C)C)NC(=O)[C@@H](N)CCCCN)C(=O)N[C@@H](CCCN=C(N)N)C(=O)N[C@@H](CCCCN)C(=O)N[C@@H](CCCCN)C(=O)N[C@@H](Cc1ccccc1)C(=O)N[C@@H](Cc1c[nH]c2ccccc12)C(=O)N[C@@H](Cc1c[nH]c2ccccc12)C(=O)NCC(N)=O [KLLRKKFWWG] | MIC [3]: 184 µM (≈ 250 µg/mL)
– | 37.5 (≈ 96 µg/mL) | 75 (≈ 192 µg/mL) | CC[C@H](C)[C@H](NC(=O)CN)C(=O)NCC(=O)N[C@@H](CCCCN)C(=O)N[C@@H](Cc1ccccc1)C(=O)N[C@H](C(=O)N[C@@H](Cc1cnc[nH]1)C(=O)N[C@@H](CO)C(=O)N[C@@H](C)C(=O)N[C@@H](CCCCN)C(=O)N[C@@H](CCCN=C(N)N)C(=O)N[C@@H](Cc1ccccc1)C(=O)NCC(=O)N[C@@H](CCCN=C(N)N)C(=O)N[C@@H](C)C(=O)N[C@@H](Cc1c[nH]c2ccccc12)C(=O)N[C@H](C(=O)NCC(=O)N[C@@H](CCC(=O)O)C(=O)N[C@H](C(=O)N[C@@H](CCSC)C(=O)N[C@@H](CC(N)=O)C(=O)N[C@@H](CO)C(N)=O)[C@@H](C)CC)C(C)C)[C@@H](C)CC [GIGKFIHSAKRFGRAWVGEIMNS] | MIC (Staphylococcus aureus): > 75 µM
2.23 (≈ 5.94 µg/mL) | – | – | CC[C@H](C)[C@H](NC(=O)CN)C(=O)NCC(=O)N[C@@H](CCCCN)C(=O)N[C@@H](Cc1ccccc1)C(=O)N[C@@H](CC(C)C)C(=O)N[C@@H](Cc1cnc[nH]1)C(=O)N[C@@H](CO)C(=O)N[C@@H](C)C(=O)N[C@@H](CCCCN)C(=O)N[C@@H](CCCCN)C(=O)N[C@@H](Cc1ccccc1)C(=O)NCC(=O)N[C@@H](CCCCN)C(=O)N[C@@H](C)C(=O)N[C@@H](Cc1ccccc1)C(=O)N[C@H](C(=O)NCC(=O)N[C@@H](CCC(=O)O)C(=O)N[C@H](C(=O)N[C@@H](CCSC)C(=O)N[C@@H](CC(N)=O)C(=O)N[C@@H](CO)C(=O)NCC(=O)NCC(=O)N[C@@H](CO)C(N)=O)[C@@H](C)CC)C(C)C [GIGKFLHSAKKFGKAFVGEIMNSGGS] | –
25.7 (≈ 32 µg/mL) | – | – | CC[C@H](C)[C@H](NC(=O)[C@H](CCCN=C(N)N)NC(=O)[C@H](Cc1c[nH]c2ccccc12)NC(=O)[C@@H](N)Cc1ccccc1)C(=O)N[C@@H](CCCN=C(N)N)C(=O)N[C@@H](CCCCN)C(=O)N[C@@H](Cc1c[nH]c2ccccc12)C(=O)N[C@@H](CCCN=C(N)N)C(N)=O [FWRIRKWR] | –
10 (≈ 11 µg/mL) | – | – | CC[C@H](C)[C@H](NC(=O)[C@H](CCCN=C(N)N)NC(=O)[C@H](CCCCN)NC(=O)[C@H](CC(C)C)NC(=O)[C@H](CC(C)C)NC(=O)CN)C(=O)N[C@@H](C)C(=O)N[C@H](C(=O)N[C@@H](CC(C)C)C(=O)N[C@@H](CC(C)C)C(N)=O)[C@@H](C)O [GLLKRIATLL] | MIC [3]: 10 µM (≈ 11 µg/mL)
> 100 | – | – | CSCC[C@H](NC(=O)[C@H](CCCCN)NC(=O)[C@H](CCCCN)NC(=O)[C@H](CCCCN)NC(=O)[C@H](CCCN=C(N)N)NC(=O)[C@H](CCCN=C(N)N)NC(=O)[C@H](Cc1ccc(O)cc1)NC(=O)[C@@H](N)CCCN=C(N)N)C(=O)N[C@@H](CCCCN)C(=O)N[C@@H](CCCCN)C(N)=O [RYRRKKKMKK] | MIC [2]: > 100 µM
– | – | > 20.3 | CC[C@H](C)[C@H](NC(=O)[C@H](Cc1ccccc1)NC(=O)[C@H](CO)NC(=O)[C@H](CCCCN)NC(=O)[C@H](Cc1c[nH]c2ccccc12)NC(=O)[C@@H](N)CCCCN)C(=O)N[C@@H](CCCCN)C(=O)N[C@@H](CCCCN)C(=O)N[C@@H](CCCCN)C(=O)N[C@H](C(=O)N[C@@H](CO)C(=O)N[C@@H](CCCCN)C(=O)N[C@@H](Cc1ccccc1)C(=O)N[C@@H](CC(C)C)C(=O)N[C@@H](Cc1cnc[nH]1)C(=O)N[C@@H](CO)C(=O)N[C@@H](C)C(=O)N[C@@H](CCCCN)C(=O)N[C@@H](CCCCN)C(=O)N[C@@H](Cc1ccccc1)C(N)=O)[C@@H](C)O [KWKSFIKKKTSKFLHSAKKF] | –
– | 16.6 (≈ 32 µg/mL) | 33.3 (≈ 64 µg/mL) | CC[C@H](C)[C@H](NC(=O)[C@H](C)NC(=O)[C@H](CCCCN)NC(=O)CNC(=O)[C@@H](NC(=O)[C@H](CCCCN)NC(=O)[C@@H](NC(=O)[C@H](C)NC(=O)[C@H](CCCCN)NC(=O)CNC(=O)[C@H](Cc1c[nH]c2ccccc12)NC(=O)[C@H](CCCCN)NC(=O)[C@@H](NC(=O)[C@H](C)NC(=O)[C@H](CCCCN)NC(=O)CNC(=O)[C@@H](NC(=O)[C@@H](N)CCCCN)[C@@H](C)CC)[C@@H](C)CC)[C@@H](C)CC)[C@@H](C)CC)C(N)=O [KIGKAIKWGKAIKIGKAI] | MIC (Staphylococcus aureus): > 133 µM
45.3 (≈ 80.8 µg/mL) | – | – | CC(C)C[C@H](NC(=O)[C@H](Cc1ccccc1)NC(=O)[C@@H]1CCCN1C(=O)[C@H](Cc1c[nH]c2ccccc12)NC(=O)[C@H](Cc1c[nH]c2ccccc12)NC(=O)[C@H](C)NC(=O)[C@@H]1CCCN1C(=O)[C@H](Cc1ccccc1)NC(=O)[C@H](CCCN=C(N)N)NC(=O)[C@H](CCCN=C(N)N)NC(=O)[C@@H](N)C(C)C)C(=O)N[C@@H](CCCN=C(N)N)C(=O)N[C@@H](CCCN=C(N)N)C(N)=O [VRRFPAWWPFLRR] | –
– | 2.8 (≈ 6.53 µg/mL) | – | CC[C@H](C)[C@H](NC(=O)[C@H](Cc1c[nH]c2ccccc12)NC(=O)[C@H](CCCCN)NC(=O)[C@@H]1CCCN1C(=O)[C@H](CC(C)C)NC(=O)[C@H](CCCCN)NC(=O)CNC(=O)[C@@H](NC(=O)[C@@H](NC(=O)[C@@H](N)CO)[C@@H](C)O)[C@@H](C)CC)C(=O)N[C@H](C(=O)N[C@@H](CCCCN)C(=O)N[C@H](C(=O)N[C@H](C(=O)N[C@@H](CC(N)=O)C(=O)N[C@@H](CCCCN)C(=O)N[C@@H](Cc1ccccc1)C(=O)N[C@H](C(=O)N[C@@H](CCCCN)C(=O)N[C@@H](CCCCN)C(=O)O)[C@@H](C)O)C(C)C)[C@@H](C)O)[C@@H](C)CC [STIGKLPKWIIKTVNKFTKK] | –
> 100 | – | – | CC[C@H](C)[C@H](NC(=O)[C@H](CCSC)NC(=O)[C@@H](NC(=O)[C@H](CCC(=O)O)NC(=O)CNC(=O)[C@H](CC(C)C)NC(=O)[C@H](Cc1ccccc1)NC(=O)[C@H](C)NC(=O)[C@H](CCCCN)NC(=O)CNC(=O)[C@H](Cc1ccccc1)NC(=O)[C@H](CCCCN)NC(=O)CNC(=O)[C@H](C)NC(=O)[C@H](CO)NC(=O)[C@H](Cc1cnc[nH]1)NC(=O)[C@H](CC(C)C)NC(=O)[C@H](Cc1ccccc1)NC(=O)[C@H](CCCCN)NC(=O)CN)C(C)C)C(=O)NCC(=O)O [GKFLHSAGKFGKAFLGEVMIG] | MIC [3]: > 100 µM

SMILES | MIC [1] [µM] | MIC (Escherichia coli) [µM] | MIC (Pseudomonas aeruginosa) [µM] | also measured
CC[C@H](C)[C@H](N)C(=O)N[C@@H](CC(C)C)C(=O)NCC(=O)N[C@@H](CCCCN)C(=O)N[C@@H](CC(C)C)C(=O)N[C@@H](Cc1c[nH]c2ccccc12)C(=O)N[C@@H](CCC(=O)O)C(=O)NCC(=O)N[C@H](C(=O)N[C@@H](CCCCN)C(=O)N[C@@H](CO)C(=O)N[C@H](C(N)=O)[C@@H](C)CC)C(C)C [ILGKLWEGVKSI] | – | – | > 25 | MIC [2]: > 25 µM
